# According to patent US20230256033A1, “PHYSIOLOGICALLY ACCEPTABLE COMPOSITIONS CONTAINING MICROORGANISMS OR MICROBIAL PRODUCTS” (FLAGSHIP PIONEERING INNOVATIONS VI, LLC, priority 2020, published 2023):
# Test system: LPS induced NFkB activity in THP1-Blue™ cells
# Assay: Suppression of LPS induced NFkB in human monocyte THP-1 reporter cells (THP1-BLUE NFkB, SEAP)
# Assay type: cell-based
# Details: IKK 16 at 2 μM; LPS 100 ng/mL 18 hours
structure (smiles),measurement,value
O=C(c1ccc(Nc2nccc(-c3cc4ccccc4s3)n2)cc1)N1CCC(N2CCCC2)CC1 [IKK 16],Suppression of LPS induced NFkB activity in THP1-Blue ™ cells (control for suppression),−80%
